The values that follow come from patent publication US6630472B1, “Compounds, pharmaceutical compositions, and methods for stimulating neuronal growth and elongation” (priority 1998, dated 2003).

Sequence of FKBP12 (P62942 whole entry, species assumed): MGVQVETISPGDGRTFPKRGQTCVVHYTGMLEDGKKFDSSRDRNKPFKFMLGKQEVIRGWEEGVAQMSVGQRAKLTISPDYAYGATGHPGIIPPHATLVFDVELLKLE

For the first experiment, the target named is FKBP12 (Homo sapiens, UniProt P62942). Put plainly: rotamase inhibition assay (N-succinyl-Ala-Ala-Pro-Phe-p-nitroanilide, chymotrypsin-coupled). It counts as biochemical. The settings on record: @ 2.5 μM. As to the method:
In the rotamase inhibition assay, isomerization of an artificial substrate N-succinyl-Ala-Ala-Pro-Phe-p-nitroanilide is followed spectrophotometrically. The assay includes the cis form of the substrate, FKBP12, the compound being tested, and chymotrypsin. Chymotrypsin is able to cleave p-nitroaniline from the trans form of the substrate, but not from the cis form. Release of p-nitroaniline is measured spectrophotometrically. Using this assay, various amounts of the FKBP rotamase-inhibiting compounds of formula (I-a) or (I-b) were added to cis-N-succinyl-alanine-alanine-proline-phenylalanine-para-nitroaniline (Bachem, 3132 Kashiwa Street, Torrance, Calif. 90505) in the presence of FKBP12 and chymotrypsin. Spectrophotometric measurements of p-nitroaniline concentrations allowed estimation of the apparent Ki values, which are provided in Table 1 below.
The inhibition is the share of the control response that was lost under treatment. Read a low inhibition as a response near the control. `CCCC(CCC)C(=O)OC[C@@H](CN1CC2CCCC(C1=O)N2C(=O)C(=O)C(C)(C)CC)OCc1ccccc1` (stereo partly drawn) [Compound 55] came in with an inhibition at 2.5 µM of 40%. Consider `CCCC(CCC)C(=O)OC[C@H](CN1CC2CCCC(C1=O)N2C(=O)C(=O)C(C)(C)CC)OCc1ccccc1` (stereo partly drawn) [Compound 56], for which the inhibition at 2.5 µM is 40%.

The same experiment, now with this note: apparent Ki; NI = no inhibition at the concentrations tested; read-out: Rotamase Ki(app).
As to `COc1cc(C(=O)C(=O)N2C3CCCC2C(=O)N(CCOCc2ccccc2)C3)cc(OC)c1OC` (stereo not drawn) [Compound 7], the Ki turned out to be 160 nM. As for `COc1cccc2c1CCN1C(=O)C3CCCC(C21)N3C(=O)C(=O)c1cc(OC)c(OC)c(OC)c1` (stereo not drawn) [Compound 12], the Ki is 27 nM.

Regarding `COc1cc(C(=O)C(=O)N2C3CCCC2C(=O)N(CCCCc2ccccc2)C3)cc(OC)c1OC` (stereo not drawn) [Compound 33], the Ki was determined as 227 nM. As for `COc1cc(C(=O)C(=O)N2C3CCCC2C(=O)N(Cc2ccccc2)C3=O)cc(OC)c1OC` [Compound 34], the Ki came out at 206 nM. On to `COc1cc(C(=O)C(=O)N2C3CCCC2C(=O)N(CCCCc2ccccc2)C3=O)cc(OC)c1OC` [Compound 35], for which the Ki came to 73 nM. Take `CCC(C)(C)C(=O)C(=O)N1C2CCCC1C(=O)N(CCCCc1ccccc1)C2=O` [Compound 36]: the Ki turned out to be 445 nM.

`COc1cc(C(=O)C(=O)N2C3CCCC2C(OC)N(CCCCc2ccccc2)C3=O)cc(OC)c1OC` (stereo not drawn) [Compound 37]: the Ki stood at 222 nM. Same read-out and setting: the figure for `COc1cc(C(=O)C(=O)N2C3CCCC2C(=O)N(CCCCCc2ccccc2)C3=O)cc(OC)c1OC` [Compound 38] is 298 nM; for `O=C1C2CCCC(CN1CCOCc1ccccc1)N2C(=O)C(=O)C12CC3CC(CC(C3)C1)C2` (stereo not drawn) [Compound 40] it is 690 nM. On the same count and under the same terms, the figure for `COc1cc(C(=O)C(=O)N2C3CCCC2C(=O)N(C2CCCC2)C3=O)cc(OC)c1OC` [Compound 41] is 5800 nM; for `COc1cc(C(=O)C(=O)N2C3CCCC2C2OCC(COCc4ccccc4)N2C3=O)cc(OC)c1OC` (stereo not drawn) [Compound 42] it is 2200 nM. Consider `COc1cc(C(=O)C(=O)N2C3CCCC2C(=O)N(C2CCCCC2)C3)cc(OC)c1OC` (stereo not drawn) [Compound 44], for which the Ki was determined as 3000 nM. Take `COc1cc(C(=O)C(=O)N2C3CCCC2C(=O)N(C[C@H](CO)OCc2ccccc2)C3)cc(OC)c1OC` (stereo partly drawn) [Compound 45]: the Ki stood at 580 nM.

Consider `CCCC(CCC)C(=O)OC[C@@H](CN1CC2CCCC(C1=O)N2C(=O)C(=O)c1cc(OC)c(OC)c(OC)c1)OCc1ccccc1` (stereo partly drawn) [Compound 46], for which the Ki was 448 nM. For the molecule `CCCC(CCC)C(=O)OC[C@H](CN1CC2CCCC(C1=O)N2C(=O)C(=O)c1cc(OC)c(OC)c(OC)c1)OCc1ccccc1` (stereo partly drawn) [Compound 47], the Ki was determined as 200 nM. Take `COc1cc(C(=O)C(=O)N2C3CCCC2C(=O)N(C[C@@H](CO)OCc2ccccc2)C3)cc(OC)c1OC` (stereo partly drawn) [Compound 50]: the Ki came to 560 nM. Take `COc1cc(C(=O)C(=O)N2C3CCCC2C(=O)N(C(CO)COCc2ccccc2)C3)cc(OC)c1OC` (stereo not drawn) [Compound 51]: the Ki stood at 4000 nM.

For `COc1cc(C(=O)C(=O)N2C3CCCC2C(=O)N(C(COCc2ccccc2)COC(C)=O)C3)cc(OC)c1OC` (stereo not drawn) [Compound 53], the Ki stood at 5000 nM. Consider `CC(C)[C@@H]1CC[C@@H](C)[C@](C)(C(=O)C(=O)N2C3CCCC2C(=O)N(CCOCc2ccccc2)C3)C1` (stereo partly drawn) [Compound 54], for which the Ki is 6000 nM. The same measure, in the same setting: the figure for `CCC(C)(C)C(=O)C(=O)N1C2CCCC1C(=O)N(C1CCCCC1)C2` (stereo not drawn) [Compound 57] is 74000 nM. As to `CCC(C)(C)C(=O)C(=O)N1C2CCCC1C(=O)N(C[C@H](CO)OCc1ccccc1)C2` (stereo partly drawn) [Compound 58], the Ki was 3000 nM. Consider `CCC(C)(C)C(=O)C(=O)N1C2CCCC1C(=O)N(C[C@@H](CO)OCc1ccccc1)C2` (stereo partly drawn) [Compound 59], for which the Ki came to 3800 nM. Take `CC(=O)OCC(C)(C)C(=O)C(=O)N1C2CCCC1C(=O)N(CCCCc1ccccc1)C2` (stereo not drawn) [Compound 60]: the Ki was determined as 3000 nM. Still for that read-out and setting: for `CCC(CC)(COC(C)=O)C(=O)C(=O)N1C2CCCC1C(=O)N(CCCCc1ccccc1)C2` (stereo not drawn) [Compound 61] the value was 790 nM. As to `CC(=O)OCC1(C(=O)C(=O)N2C3CCCC2C(=O)N(CCCCc2ccccc2)C3)CCCC1` (stereo not drawn) [Compound 62], the Ki amounted to 160 nM. Consider `COCOCC(C)(C)C(=O)C(=O)N1C2CCCC1C(=O)N(CCCCc1ccccc1)C2` (stereo not drawn) [Compound 63], for which the Ki was found to be 3100 nM. Same read-out and setting: for `CCC(CC)C(=O)C(=O)N1C2CCCC1C(=O)N(CCCCc1ccccc1)C2` (stereo not drawn) [Compound 68] the value was 2500 nM; for `CCC(C)(C)C(=O)C(=O)N1C2CCCC1C(=O)N(C1CCCC1)C2` (stereo not drawn) [Compound 69], 33000 nM; for `C=CCC(CC=C)C(=O)OC[C@H](CN1CC2CCCC(C1=O)N2C(=O)C(=O)C(C)(C)CC)OCc1ccccc1` (stereo partly drawn) [Compound 70], 890 nM. In the case of `COc1cc(C(=O)C(=O)N2C3CCCC2C(=O)N([C@H]2CCC[C@@H]2OCc2ccccc2)C3)cc(OC)c1OC` (stereo partly drawn) [Compound 71], the Ki came to 4700 nM. Take `COc1cc(C(=O)C(=O)N2C3CCCC2C(=O)N([C@H]2CCC[C@@H]2OCc2ccccc2)C3)cc(OC)c1OC` (stereo partly drawn) [Compound 72]: the Ki stood at 240 nM.

With `C=CCC(CC=C)C(=O)OC[C@H](CN1CC2CCCC(C1=O)N2C(=O)C(=O)c1cc(OC)c(OC)c(OC)c1)OCc1ccccc1` (stereo partly drawn) [Compound 73], the Ki came to 63 nM.

On to `COc1ccc2c(c1)C(OC)C1C3CCCC(C(=O)N1C2)N3C(=O)C(=O)c1cc(OC)c(OC)c(OC)c1` (stereo not drawn) [Compound 74], for which the Ki amounted to 111 nM. Turning to `C=CCC(CC=C)C(=O)OC[C@@H](CN1CC2CCCC(C1=O)N2C(=O)C(=O)C(C)(C)CC)OCc1ccccc1` (stereo partly drawn) [Compound 75], the Ki is 790 nM. Same read-out and setting: the figure for `C=CCC(CC=C)C(=O)OC[C@@H](CN1CC2CCCC(C1=O)N2C(=O)C(=O)c1cc(OC)c(OC)c(OC)c1)OCc1ccccc1` (stereo partly drawn) [Compound 76] is 112 nM. Consider `CCC(C)(C)C(=O)C(=O)N1C2CCCC1C(=O)N([C@H]1CCC[C@@H]1OCc1ccccc1)C2` (stereo partly drawn) [Compound 77], for which the Ki amounted to 20500 nM. Consider `CCC(C)(C)C(=O)C(=O)N1C2CCCC1C(=O)N([C@H]1CCC[C@@H]1OCc1ccccc1)C2` (stereo partly drawn) [Compound 78], for which the Ki is 4100 nM. With `CCOC1C2CCCC(C(=O)N1Cc1ccc(OC)cc1)N2C(=O)C(=O)c1cc(OC)c(OC)c(OC)c1` (stereo not drawn) [Compound 79], the Ki was 700 nM. For `COc1ccc(CN2C(=O)C3CCCC(C2C#N)N3C(=O)C(=O)c2cc(OC)c(OC)c(OC)c2)cc1` (stereo not drawn) [Compound 80], the Ki stood at 1800 nM. For `CCC(CC)(COC(=O)COC)C(=O)C(=O)N1C2CCCC1C(=O)N(CCCCc1ccccc1)C2` (stereo not drawn) [Compound 81], the Ki is 1100 nM. The same measure, in the same setting: for `COc1ccc2c(c1)C1C3CCCC(C(=O)N1CC2)N3C(=O)C(=O)C1(COC(C)=O)CCCC1` (stereo not drawn) [Compound 82] the value was 3000 nM; for `CCC(CC)(COCOC)C(=O)C(=O)N1C2CCCC1C(=O)N(CCCCc1ccccc1)C2` (stereo not drawn) [Compound 83], 860 nM; for `COCC(=O)OCC1(C(=O)C(=O)N2C3CCCC2C(=O)N(CCCCc2ccccc2)C3)CCCC1` (stereo not drawn) [Compound 84], 134 nM. Still for that read-out and setting: for `COCOCC1(C(=O)C(=O)N2C3CCCC2C(=O)N(CCCCc2ccccc2)C3)CCCC1` (stereo not drawn) [Compound 85] the value was 324 nM; for `CC(=O)OCC1(C(=O)C(=O)N2C3CCCC2C(=O)N(CCCCc2ccccc2)C3)CCCCC1` (stereo not drawn) [Compound 86], 1300 nM.

On to `CCC(C)(C)C(=O)C(=O)N1C2CCCC1C1c3cccc(OC)c3CCN1C2=O` (stereo not drawn) [Compound 87], for which the Ki worked out at 5000 nM.

Regarding `O=C1C2CCCC(CN1CCCCc1ccccc1)N2C(=O)C(=O)C1(O)CCCC1` (stereo not drawn) [Compound 95], the Ki is 1200 nM.

Regarding `COc1cc(C(=O)C(=O)N2C3CCCC2C2OCCN2C3=O)cc(OC)c1OC` (stereo not drawn) [Compound 96], the Ki worked out at 1400 nM. For `CCC(C)(C)C(=O)C(=O)N1C2CCCC1[C@@H]1OCCN1C2=O` (stereo partly drawn) [Compound 97], the Ki is 9000 nM. Same read-out and setting: for `COCCOC1(C(=O)C(=O)N2C3CCCC2C(=O)N(CCCCc2ccccc2)C3)CCCC1` (stereo not drawn) [Compound 98] the value was 772 nM. Still for that read-out and setting: the figure for `CO[C@@H](C)[C@@H]1CC[C@@H](C)[C@](O)(C(=O)C(=O)N2C3CCCC2C(=O)N(CCCCc2ccccc2)C3)C1` (stereo partly drawn) [Compound 99] is 3700 nM. Still for that read-out and setting: for `COC1(C(=O)C(=O)N2C3CCCC2C(=O)N(CCCCc2ccccc2)C3)CCCC1` (stereo not drawn) [Compound 100] the value was 627 nM; for `COCC(=O)OC1(C(=O)C(=O)N2C3CCCC2C(=O)N(CCCCc2ccccc2)C3)CCCC1` (stereo not drawn) [Compound 101], 1400 nM. As for `COC(OC)C(=O)OC1(C(=O)C(=O)N2C3CCCC2C(=O)N(CCCCc2ccccc2)C3)CCCC1` (stereo not drawn) [Compound 102], the Ki stood at 690 nM. On to `COC(COC1(C(=O)C(=O)N2C3CCCC2C(=O)N(CCCCc2ccccc2)C3)CCCC1)OC` (stereo not drawn) [Compound 103], for which the Ki is 1200 nM. As to `C=CCC(CC=C)C(=O)OC[C@@H](CN1CC2CCCC(C1=O)N2C(=O)C(=O)C1(COC(=O)COC)CCCC1)OCc1ccccc1` (stereo partly drawn) [Compound 108], the Ki turned out to be 61 nM. Still for that read-out and setting: for `C=CCC(CC=C)C(=O)OC[C@@H](CN1CC2CCCC(C1=O)N2C(=O)C(=O)C1(COC(C)=O)CCCC1)OCc1ccccc1` (stereo partly drawn) [Compound 109] the value was 49 nM. As to `C=CCC(CC=C)C(=O)OC[C@H](CN1CC2CCCC(C1=O)N2C(=O)C(=O)C1(COC(=O)COC)CCCC1)OCc1ccccc1` (stereo partly drawn) [Compound 110], the Ki was found to be 86 nM. As for `C=CCC(CC=C)C(=O)OC[C@H](CN1CC2CCCC(C1=O)N2C(=O)C(=O)C1(COC(C)=O)CCCC1)OCc1ccccc1` (stereo partly drawn) [Compound 111], the Ki was determined as 663 nM.

As for `COCOC1(C(=O)C(=O)N2C3CCCC2C(=O)N(CCCCc2ccccc2)C3)CCCC1` (stereo not drawn) [Compound 112], the Ki was determined as 1000 nM.

With `COC(CN1C[C@@H]2[C@H]3CCC[C@@H](C(=O)N2CC1=O)N3C(=O)C(=O)C1(OC)CCCC1)OC` [Compound 115], the Ki was greater than 20000 nM.
